Reference: patent publication US20250230193A1, “CYCLIC COMPOUND HAVING SELECTIVE KRAS INHIBITORY EFFECT ON HRAS AND NRAS” (CHUGAI SEIYAKU KABUSHIKI KAISHA, priority 2022, published 2025)
Where a SMILES comes first, the peptide text is derived from it. Bridges are numbered along the chain shown (N, C = ends). [ ]: non-standard residue; d: D form. The star is where a group is joined. hPhe(3-Cl-4-CF3) = N[C@@H](CCc1ccc(C(F)(F)F)c(Cl)c1)C(=O)O; NPrPhe(4-CF3) = CCCN[C@@H](Cc1ccc(C(F)(F)F)cc1)C(=O)O; NMeGly(cPent) = CN[C@H](C(=O)O)C1CCCC1; NMeD = CN[C@@H](CC(=O)O)C(=O)O; NMeL = CN[C@@H](CC(C)C)C(=O)O; Pip = O=C(O)[C@@H]1CCCCN1; Morpholide = C1CN(*)CCO1; NMeA = CN[C@@H](C)C(=O)O; Ac5c = NC1(C(=O)O)CCCC1; Aze = O=C(O)[C@@H]1CCN1; Sar = CNCC(=O)O

Key:
[1] = target: GDP-bound NRAS wild-type protein (Homo sapiens, UniProt P01111); test: Binding to NRAS by surface plasmon resonance (SPR), Single Cycle Kinetics; details: for NRAS/KRAS (ratio of KD value with respect to NRAS to KD value with respect to KRAS): GDP-bound NRAS wild-type vs GDP-bound KRAS wild-type
Chain of GDP-bound NRAS wild-type protein (P01111 whole entry): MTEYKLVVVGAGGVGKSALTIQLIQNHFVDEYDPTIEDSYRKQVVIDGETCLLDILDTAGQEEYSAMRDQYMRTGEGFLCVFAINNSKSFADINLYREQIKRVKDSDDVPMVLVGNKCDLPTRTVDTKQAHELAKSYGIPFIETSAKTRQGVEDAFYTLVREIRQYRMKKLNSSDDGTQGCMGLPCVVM

[2] = target: GDP-bound HRAS wild-type protein (Homo sapiens, UniProt P01112); test: Binding to HRAS by surface plasmon resonance (SPR), Single Cycle Kinetics; details: for HRAS/KRAS (ratio of KD value with respect to HRAS to KD value with respect to KRAS): GDP-bound HRAS wild-type vs GDP-bound KRAS wild-type
Chain of GDP-bound HRAS wild-type protein (P01112 whole entry): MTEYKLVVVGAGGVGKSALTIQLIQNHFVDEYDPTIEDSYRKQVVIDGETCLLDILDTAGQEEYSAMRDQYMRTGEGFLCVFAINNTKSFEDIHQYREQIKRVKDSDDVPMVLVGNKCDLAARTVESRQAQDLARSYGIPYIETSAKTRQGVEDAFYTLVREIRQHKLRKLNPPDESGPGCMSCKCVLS

CCC[C@H]1C(=O)N[C@@H]([C@@H](C)CC)C(=O)N(C)CC(=O)N(C)[C@H]2C/C=C\CCN(C2=O)[C@@H](Cc2ccc(C)cc2)C(=O)N(C)CC(=O)N[C@@H](CCc2ccc(C(F)(F)F)c(OC)c2)C(=O)N2C[C@H](OCC)C[C@H]2C(=O)NC2(CC(C)(C)C2)C(=O)N(C)[C@@H](CC(C)(C)C)C(=O)N(C)[C@H](C(=O)N(C)C)CC(=O)N1C [PP2710]
NRAS/KRAS (ratio of KD value with respect to GDP-bound NRAS wild-type protein to KD value with respect to KRAS) ([1]; KD ratio NRAS/KRAS, class symbols): B (a compound having 3 or more and less than 10 is denoted as B)
HRAS/KRAS (ratio of KD value with respect to GDP-bound HRAS wild-type protein to KD value with respect to KRAS) ([2]; KD ratio HRAS/KRAS, class symbols): B (a compound having 3 or more and less than 10 is denoted as B)

CCCN1C(=O)[C@@H]2CCN2C(=O)[C@H](C)N(C)C(=O)[C@H]([C@@H](C)CC)NC(=O)[C@H](CC(C)C)N(C)C(=O)C[C@@H](C(=O)N2CCOCC2)N(C)C(=O)[C@H](C2CCCC2)N(C)C(=O)C2(CCCC2)NC(=O)[C@@H]2CCCCN2C(=O)[C@H](CCc2ccc(C(F)(F)F)c(Cl)c2)NC(=O)CN(C)C(=O)[C@@H]1Cc1ccc(C(F)(F)F)cc1 [PP0284] ([NMeL]I[NMeA][Aze][NPrPhe(4-CF3)][Sar][hPhe(3-Cl-4-CF3)][Pip][Ac5c][NMeGly(cPent)][NMeD]-Morpholide; lactam N-11)
NRAS/KRAS (ratio of KD for GDP-bound NRAS wild-type to KD for KRAS) ([1]; KD ratio NRAS/KRAS, SPR): C (A compound having a KD ratio of 0.1 or more and less than 3 is denoted as C)
HRAS/KRAS (ratio of KD for GDP-bound HRAS wild-type to KD for KRAS) ([2]; KD ratio HRAS/KRAS, SPR): B (a compound having 3 or more and less than 10 is denoted as B)

CCO[C@@H]1C[C@H]2C(=O)NC3(CCC3)C(=O)N(C)[C@@H](C3CCCC3)C(=O)N(C)[C@H](C(=O)N3CCOCC3)CC(=O)N(C)[C@@H](Cc3ccsc3)C(=O)N[C@@H]([C@@H](C)CC)C(=O)N(C)CC(=O)N(C)[C@H]3CCCCCN(C3=O)[C@@H](Cc3ccc(C(F)(F)F)cc3)C(=O)N(C)CC(=O)N[C@@H](CCc3cc(F)c(C(F)(F)F)c(F)c3)C(=O)N2C1 [PP1164]
NRAS/KRAS (ratio of KD value with respect to NRAS to KD value with respect to KRAS) ([1]; KD ratio, SPR): B (a compound having 3 or more and less than 10 is denoted as B)
HRAS/KRAS (ratio of KD value with respect to HRAS to KD value with respect to KRAS) ([2]; KD ratio, SPR): B (a compound having 3 or more and less than 10 is denoted as B)

CCO[C@@H]1C[C@H]2C(=O)NC3(CCC3)C(=O)N(C)[C@@H](C3CCCC3)C(=O)N(C)[C@H](C(=O)N(C)C)CC(=O)N(C)[C@@H](CC)C(=O)N[C@@H]([C@@H](C)CC)C(=O)N(C)CC(=O)N(C)[C@H]3CCCCN(C3=O)[C@@H](Cc3ccc(C(F)(F)F)cc3)C(=O)N(C)CC(=O)N[C@@H](CCc3ccc4ccsc4c3)C(=O)N2C1 [PP0888]
NRAS/KRAS (ratio of KD value with respect to NRAS to KD value with respect to KRAS) ([1]; KD ratio, SPR): C (A compound having a KD ratio of 0.1 or more and less than 3 is denoted as C)
HRAS/KRAS (ratio of KD value with respect to HRAS to KD value with respect to KRAS) ([2]; KD ratio, SPR): B (a compound having 3 or more and less than 10 is denoted as B)

CCC[C@H]1C(=O)N[C@@H]([C@@H](C)CC)C(=O)N(C)CC(=O)N(C)[C@H]2C/C=C\CCN(C2=O)[C@@H](CC2CCC(F)(F)CC2)C(=O)N(C)CC(=O)N[C@@H](CCc2cc(F)c(C(F)(F)F)c(F)c2)C(=O)N2C[C@H](OCC)C[C@H]2C(=O)NC2(CC(C)(C)C2)C(=O)N(C)[C@@H](C(CC)CC)C(=O)N(C)[C@H](C(=O)N(C)C)CC(=O)N1C [PP2489]
NRAS/KRAS (ratio of KD value with respect to NRAS to KD value with respect to KRAS) ([1]; SPR): A (a compound having 10 or more and less than 20 is denoted as A)
HRAS/KRAS (ratio of KD value with respect to HRAS to KD value with respect to KRAS) ([2]; SPR): A (a compound having 10 or more and less than 20 is denoted as A)

CC[C@H](C)[C@@H]1NC(=O)[C@H](COC)N(C)C(=O)C[C@@H](C(=O)N(C)C)N(C)C(=O)[C@H](C2CCCC2)N(C)C(=O)C2(CC(C)(C)C2)NC(=O)[C@@H]2C[C@@H](OC(C)C)CN2C(=O)[C@H](CCc2cc(F)c(C(F)(F)F)c(F)c2)NC(=O)CN(C)C(=O)[C@H](CC2CCCCC2)N2CC/C=C\C[C@@H](C2=O)N(C)C(=O)CN(C2CC2)C1=O [PP2511]
NRAS/KRAS (ratio of KD value with respect to NRAS to KD value with respect to KRAS) ([1]; SPR): A (a compound having 10 or more and less than 20 is denoted as A)
HRAS/KRAS (ratio of KD value with respect to HRAS to KD value with respect to KRAS) ([2]; SPR): A (a compound having 10 or more and less than 20 is denoted as A)

CCO[C@@H]1C[C@H]2C(=O)NC3(CCC3)C(=O)N(C)[C@@H](C3CCCC3)C(=O)N(C)[C@H](C(=O)N3CCOCC3)CC(=O)N(C)[C@@H](Cc3ccc(Cl)c(Cl)c3)C(=O)N[C@@H]([C@@H](C)CC)C(=O)N(C)CC(=O)N(C)[C@H]3CCCCCN(C3=O)[C@@H](Cc3ccc(C(F)(F)F)cc3)C(=O)N(C)CC(=O)N[C@@H](CCc3cc(F)c(C(F)(F)F)c(F)c3)C(=O)N2C1 [PP1168]
NRAS/KRAS (ratio of KD value with respect to NRAS to KD value with respect to KRAS) ([1]; KD ratio, SPR): A (a compound having 10 or more and less than 20 is denoted as A)
HRAS/KRAS (ratio of KD value with respect to HRAS to KD value with respect to KRAS) ([2]; KD ratio, SPR): A (a compound having 10 or more and less than 20 is denoted as A)
